# Test results: BindingDB's records for doi:10.7270/Q2P55M4P (Burnham Center For Chemical Genomics, 2013)
# Target: Tumor necrosis factor receptor superfamily member 10B (Homo sapiens, UniProt O14763)
# Sequence (O14763 whole entry): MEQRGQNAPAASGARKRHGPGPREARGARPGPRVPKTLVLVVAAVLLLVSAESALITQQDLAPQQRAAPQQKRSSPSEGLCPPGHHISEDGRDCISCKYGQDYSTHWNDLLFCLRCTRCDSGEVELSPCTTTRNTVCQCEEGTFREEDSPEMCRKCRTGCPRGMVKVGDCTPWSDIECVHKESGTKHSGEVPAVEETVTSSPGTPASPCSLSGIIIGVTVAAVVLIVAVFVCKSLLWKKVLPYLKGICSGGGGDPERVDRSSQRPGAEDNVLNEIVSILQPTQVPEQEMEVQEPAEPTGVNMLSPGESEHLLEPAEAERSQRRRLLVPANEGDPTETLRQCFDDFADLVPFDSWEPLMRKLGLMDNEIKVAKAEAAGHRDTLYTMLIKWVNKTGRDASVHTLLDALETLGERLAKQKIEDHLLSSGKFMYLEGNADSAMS
row,SMILES,EC50 [µM]
1,CN(C)c1ccc(N=CCC(=O)c2ccco2)cc1,7.62
2,O=c1c2ccccc2nc2c3ccccc3cnn12,> 12.5
3,Cc1ccc(N=CC(C(=O)c2cccs2)C(=O)C(F)(F)F)cc1 (stereo unspecified),1.87
4,"CCOC(=O)C(c1nc2ccccc2[nH]1)n1c(-c2cccnc2)nc2ccccc21 (stereo unspecified) [2-(1,3-dihydrobenzimidazol-2-ylidene)-2-[2-(3-pyridinyl)-1-benzimidazolyl]acetic acid ethyl ester]",10.5
5,"Cc1cc(N=NCc2ccccc2)nc(NCc2ccccc2)n1 [6-methyl-N2-(phenylmethyl)-N4-[(E)-(phenylmethylidene)amino]pyrimidine-2,4-diamine]",> 12.5
6,"O=C(Cc1ccc2ccccc2n1)c1ccc(O)cc1O [(2Z)-1-(2,4-dihydroxyphenyl)-2-(1H-quinolin-2-ylidene)ethanone]",> 12.5
7,COc1cccc(N=CCC(=O)c2ccc(Cl)cc2)c1 [(E)-1-(4-chlorophenyl)-3-(3-methoxyanilino)-2-propen-1-one],10.3
8,O=c1[nH]c(N=NCc2ccc3c(c2)OCO3)nc2ccccc12 [MLS000700888],10.9
9,COc1ccc(C(C)N=Nc2nncc3ccccc23)cc1 (stereo unspecified) [N-[(E)-1-(4-methoxyphenyl)ethylideneamino]-1-phthalazinamine],> 12.5
10,COc1ccc(CN=Nc2nc3ccccc3c(=O)n2-c2ccccc2)cc1OC [SMR000174011],8.6
11,CCOC(=O)c1ccc(N=CCC(=O)c2ccco2)cc1 [ethyl 4-[[(E)-3-(furan-2-yl)-3-oxoprop-1-enyl]amino]benzoate],> 12.5
